Measurements reported in ChEMBL document CHEMBL5260832, “Hepatoprotective natural triterpenoids” (Eur J Med Chem, 2018).

What was measured:
Mus musculus [1] = species: Mus musculus; assay: Hepatoprotective activity in mouse model of CCl4-induced liver injury assessed as reduction in ALT level at 100 microg/ml (reference value: 40.2 U/mL); format: functional; conditions: dose 100 µg/ml
Hepatocyte [2] = assay: Hepatoprotective activity against D-GaIN-induced toxicity in mouse hepatocytes at 100 uM relative to control; format: functional
Hepatocyte [3] = assay: Hepatoprotective activity against D-GaIN-induced toxicity in mouse hepatocytes at 10 uM relative to control; format: functional
Hepatocyte [4] = assay: Hepatoprotective activity against D-GaIN-induced toxicity in mouse hepatocytes at 30 uM relative to control; format: functional
Hepatocyte [5] = assay: Hepatoprotective activity against D-GaIN-induced toxicity in mouse hepatocytes at 3 uM relative to control; format: functional
[6] = Hepatotoxicity in GaIN-induced rat model of liver injury assessed as reduction in ALT level at 4 mg/kg relative to control; format: toxicity, organism-based; set-up: scale not given: the % may be the effect or the level left; conditions: in vivo
Mus musculus [7] = species: Mus musculus; assay: Hepatoprotective activity in CCl4-induced toxicity in liver injured mouse assessed as increase in inhibition of liver damage relative to control; format: functional; set-up: concentration or dose not given beside the values
Rattus norvegicus [8] = assay: Hepatoprotective activity in ethanol-induced rat model of liver injury assessed as reduction in ALT level at 4 mg/kg relative to control; format: functional; set-up: scale not given: the % may be the effect or the level left
Rattus norvegicus [9] = assay: Hepatoprotective activity in GaIN-induced rat model of liver injury assessed as reduction in ALT level at 4 mg/kg relative to control; format: functional; set-up: scale not given: the % may be the effect or the level left
Rattus norvegicus [10] = assay: Hepatoprotective activity in ethanol-induced rat model of liver injury assessed as reduction in AST level at 4 mg/kg relative to control; format: functional; set-up: scale not given: the % may be the effect or the level left
HepG2 [11] = assay: Hepatoprotective activity against H2O2-induced cell death in human HepG2 cells assessed as reduction in AST level at 74.60 uM preincubated for 1 hr followed by H2O2-stimulation and measured after 24 hrs; format: functional; conditions: dose 74.6 µM
HepG2 [12] = assay: Hepatoprotective activity against H2O2-induced cell death in human HepG2 cells assessed as reduction in AST level at 18.65 uM preincubated for 1 hr followed by H2O2-stimulation and measured after 24 hrs; format: functional
HepG2 [13] = assay: Hepatoprotective activity against H2O2-induced cell death in human HepG2 cells assessed as reduction in ALT level at 74.60 uM preincubated for 1 hr followed by H2O2-stimulation and measured after 24 hrs; format: functional; conditions: dose 74.6 µM
Rattus norvegicus [14] = assay: Hepatoprotective activity in CCl4-induced rat model of liver injury assessed as reduction in ALT level at 4 mg/kg relative to control; format: functional; set-up: scale not given: the % may be the effect or the level left
L02 [15] = assay: Protection against D-GalN-induced toxicity in L02 cells […] assessed as reduction in cell growth at 3.13 microg/ml relative to control; format: functional, Homo sapiens; set-up: scale not given: the % may be the effect or the level left; conditions: dose 3.13 µg/ml
L02 [16] = assay: Protection against D-GalN-induced toxicity in L02 cells […] assessed as reduction in cell growth at 6.25 microg/ml relative to control; format: functional, Homo sapiens; set-up: scale not given: the % may be the effect or the level left; conditions: dose 6.25 µg/ml
L02 [17] = assay: Protection against D-GalN-induced toxicity in L02 cells […] assessed as reduction in cell growth relative to control; format: functional, Homo sapiens; set-up: scale not given: the % may be the effect or the level left
HepG2 [18] = assay: Hepatoprotective activity against H2O2-induced human HepG2 cells assessed as increase in AST level at 25.55 uM; format: functional
HepG2 [19] = assay: Hepatoprotective activity against H2O2-induced human HepG2 cells assessed as increase in ALT level; format: functional
HepG2 [20] = assay: Cytoprotective activity against t-BHP induced cell death in human HepG2 cells assessed as cell survival rate at 5 uM relative to control; format: functional

Structure (SMILES): C=C1[C@H](O)C[C@]2(C)CC[C@]3(C)C(=C[C@@H](O)[C@@H]4[C@@]5(C)CC[C@H](OC(C)=O)C(C)(C)[C@@H]5CC[C@]43C)[C@@H]2[C@@H]1C
- Activity (Mus musculus [1]): 15.7 U/ml

Structure (SMILES): CC1(C)CC[C@]2(C(=O)O[C@@H]3O[C@H](CO)[C@@H](O)[C@H](O)[C@H]3O)CC[C@]3(C)C(=CC[C@@H]4[C@@]5(C)C[C@@H](O)[C@H](O)C(C)(C)[C@@H]5CC[C@]43C)[C@@H]2[C@@H]1O
- Activity (Hepatocyte [2]): 15.6%
- Activity (Hepatocyte [3]): 24.5%
- Activity (Hepatocyte [4]): 25.2%
- Activity (Hepatocyte [5]): 11.1%

Structure (SMILES): COC(=O)[C@]12CC[C@@H](C)[C@H](C)[C@H]1C1=CC[C@@H]3[C@@]4(C)C[C@@H](OCc5ccccc5)C5OC(C)(C)OC[C@@]5(C)[C@@H]4CC[C@@]3(C)[C@]1(C)CC2 (stereo not given in full)
- Activity [6]: 33.6%

Structure (SMILES): C[C@H]1[C@H](C)CC[C@]2(C(=O)O)CC[C@]3(C)C(=CC[C@@H]4[C@@]5(C)C[C@@H](O)[C@H](O)[C@@](C)(CO)[C@@H]5CC[C@]43C)[C@H]12 [ASIATIC ACID]
- Activity (Mus musculus [7]): 1%
- Activity (Rattus norvegicus [8]): 20%
- Activity (Rattus norvegicus [9]): 23.1%
- Activity (Rattus norvegicus [10]): 25%

Structure (SMILES): C=C(C)[C@@H]1C[C@H](O)C2=C(C(=O)C[C@]3(C)[C@@H]([C@H](C)CCC(=O)OC)CC[C@@]23C)[C@@]1(C)CCC(=O)O
- Activity (HepG2 [11]): 10.53 U/L
- Activity (HepG2 [12]): 19.56 U/L
- Activity (HepG2 [13]): 7.22 U/L

Structure (SMILES): COC(=O)[C@]12CC[C@@H](C)[C@H](C)[C@H]1C1=CC[C@@H]3[C@@]4(C)C[C@@H](OC)[C@H](OC(C)=O)[C@@](C)(COC(C)=O)[C@@H]4CC[C@@]3(C)[C@]1(C)CC2
- Activity (Rattus norvegicus [14]): 33.3%

Structure (SMILES): CC(C)(O[C@@H]1O[C@H](CO)[C@@H](O)[C@H](O)[C@H]1O)[C@@H]1CC[C@@H]([C@H]2[C@H](O)C[C@]3(C)[C@@H]2CC[C@@H]2[C@@]4(C)CC[C@H](O[C@@H]5O[C@H](CO)[C@@H](O)[C@H](O)[C@H]5O[C@@H]5O[C@H](CO)[C@@H](O)[C@H](O)[C@H]5O)C(C)(C)[C@@H]4CC[C@]23C)O1
- Activity (L02 [15]): 22.8%
- Activity (L02 [16]): 22.8%
- Activity (L02 [17]): 46.7%

Structure (SMILES): CC(=O)[C@H]1CC(=O)[C@@]2(C)C3=C(C(=O)C[C@]12C)[C@@]1(C)CCC(=O)C(C)(C)[C@@H]1CC3=O
- Activity (HepG2 [18]): 26.83 U/L
- Activity (HepG2 [19]): 21.42 U/L

Structure (SMILES): CC(C(=O)O)[C@H]1CC[C@@]2(C)[C@@H]3C(=O)C=C4[C@@H](CC[C@@H](O)C4(C)C)[C@]3(C)CC[C@]12C (stereo not given in full)
- Activity (HepG2 [20]): 55.2%
